From patent publication US12441739B2, “Glucagon receptor antagonist and use thereof” (LANZHOU UNIVERSITY, priority 2021, dated 2025) come the findings set out here.

Usually IC50 stands for the concentration that gives 50% inhibition. The low end stands for inhibition by little substance, the high end for a need for much substance.

Each structure is given as a SMILES string. “And” between values parts separate entries of the source, which are not always exact repeats. Equal values may be shown once.

The assay has as its target T1, human glucagon receptor (hGCGR) (Homo sapiens, UniProt P47871).
T1 construct: host or cells: HEK293
Nature of the assay: HTRF second messenger cAMP response experiment (called cell viability test) in HEK293 cells with glucagon peptide segment. The assay is classed as cell-based. Particulars: for inhibitory activity of glucagon receptor (in words, from cAMP response curves): FIG. 5 / FIG. 14. The method, then:
In order to determine the antagonistic activity of the compound A on the glucagon receptor in the above embodiments, a cell viability test is carried out. The specific implementation is as follows.
A known human glucagon receptor (hGCGR) antagonist drug is selected as a positive control, and the compound A in the above embodiments, a glucagon peptide segment (that is, human full-length glucagon), and human embryonic kidney cells containing target receptor molecules are mixed. The glucagon peptide segment binds to hGCGR to activate the hGCGR signaling pathway and release the second messenger cAMP. The compound A acts as an antagonist to inhibit the activity of hGCGR.
In an exemplary embodiment, a known hGCGR antagonist drug (L-168,049) is selected as a positive control. […] In addition, in view of the human glucagon receptor on the cell membrane of human embryonic kidney cells HEK293, HEK293 is used to test the drug activity of the human glucagon antagonist. In this embodiment, different concentrations of compound A of the present disclosure and the positive control are respectively mixed with glucagon peptide segments and HEK293 cells, the second messenger cAMP is detected through homogeneous time resolved fluorescence (HTRF), and a half maximal inhibitory concentration value of each compound is calculated according to the intensity value of HTRF.
In an exemplary embodiment, the activity of the compound A is tested using the HTRF technique. Specifically, after activation of the glucagon receptor by the glucagon peptide segment, the second messenger cAMP is released from the glucagon receptor cells, the second messenger cAMP may be detected by HTRF, and the half maximal inhibitory concentration (IC50) of the tested compound may be calculated according to the fluorescence intensity.
In an exemplary embodiment, 11 identical concentration gradients are set for the compounds A1 and A2 respectively. The activities of the compounds A1 and A2 are determined by the HTRF second messenger cAMP response experiment in triplicate.
Step S910. Select an antagonist drug of hGCGR as a positive control, and mix each target drug small molecule, a glucagon peptide segment, and human embryonic kidney cells containing the target receptor molecule. The glucagon peptide segment binds to hGCGR to activate the hGCGR signaling pathway and release the second messenger cAMP. The target drug molecule acts as an antagonist to inhibit the activity of hGCGR.
In an exemplary embodiment, an antagonist drug (such as L-168,049) of hGCGR is selected as a positive control. In addition, in view of the human glucagon receptor on the cell membrane of human embryonic kidney cells (such as HEK293), HEK293 may be used to test the drug activity of the human glucagon antagonist. The target drug small molecule, the glucagon peptide segment, and the HEK293 cells containing the target receptor molecule are mixed. The glucagon peptide segment is used to bind to hGCGR to activate the hGCGR signaling pathway and promote the release of the second messenger cAMP. The target drug molecule acts as an antagonist to inhibit the activity of hGCGR.
Step S920. Detect the second messenger cAMP through HTRF, and determine a half maximal inhibitory concentration value of each target drug small molecule according to an intensity value of HTRF.
In an exemplary embodiment, the activity of each target drug small molecule (such as 30 target drug small molecules shown in Table 2) is tested by using the HTRF technique. Specifically, after activation of the glucagon receptor by the glucagon peptide segment, the second messenger cAMP is released from the glucagon receptor cells, the second messenger cAMP may be detected by HTRF, and the half maximal inhibitory concentration (IC50) of the drug molecule may be calculated according to the fluorescence intensity. […]
A general note: Time-resolved FRET reads energy transfer from a long-lived donor to a nearby acceptor.

Setting [1] is: concentration gradient LogM −6.908485, HEK293 cells, glucagon peptide segment, HTRF cAMP, triplicate columns.
Where [2] appears, read: concentration gradient LogM −5, HEK293 cells, glucagon peptide segment, HTRF cAMP, triplicate columns.
The mark [3] stands for this setting: concentration gradient LogM −5.954243, HEK293 cells, glucagon peptide segment, HTRF cAMP, triplicate columns.

T1 sequence (P47871 26-477): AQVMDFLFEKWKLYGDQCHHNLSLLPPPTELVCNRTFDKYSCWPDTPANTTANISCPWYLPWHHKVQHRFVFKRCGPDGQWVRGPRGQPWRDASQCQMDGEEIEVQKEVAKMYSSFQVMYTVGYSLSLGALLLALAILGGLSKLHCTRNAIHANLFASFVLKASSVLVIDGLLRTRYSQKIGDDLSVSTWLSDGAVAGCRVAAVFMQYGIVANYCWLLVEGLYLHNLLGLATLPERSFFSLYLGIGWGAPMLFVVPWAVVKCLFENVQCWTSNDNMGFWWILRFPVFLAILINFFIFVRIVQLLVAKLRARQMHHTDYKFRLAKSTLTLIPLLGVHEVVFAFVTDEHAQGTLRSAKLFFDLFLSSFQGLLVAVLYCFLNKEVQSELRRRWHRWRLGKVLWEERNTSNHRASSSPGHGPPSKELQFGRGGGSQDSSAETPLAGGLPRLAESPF

Compound `COc1ccc(C(=O)NC(=S)Nc2ccc(NC(=S)NC(C)=O)cc2)cc1Cl` [Compound C3] registered an IC50 greater than 10 µM. Under setting [1], the Inhibition percentage is 5.05% and 4.705% and 12.02%.
Consider `CNC(=O)Cc1ccccc1NC(=O)NCCC(=O)NC1CCCC1` [Compound C24], for which the IC50 is greater than 10 µM.
Consider `COc1ccc2cc(C(=O)NCCNc3ccc(C)nn3)[nH]c2c1` [Compound C15], for which the IC50 was greater than 10 µM. The Inhibition percentage under setting [2] is 2.451% and 0.02571% and 3.529%. Under setting [1], the Inhibition percentage was −19.189% and −13.1875% and −18.6652%. In addition, the Inhibition percentage (concentration gradient LogM −7.862728, HEK293 cells, glucagon peptide segment, HTRF cAMP, triplicate columns) is 3.911% and 12.71% and 11.16%.
Compound `COc1cc(/C=N/NC(=O)CN2C(=O)N[C@H]3NC(=O)N[C@@H]32)cc(OC)c1O` [Compound C12] showed an IC50 greater than 10 µM.
`O=C(NCCCCCCNC(=O)NCc1cccnc1)NCc1cccnc1` [Compound C5] returned an IC50 greater than 10 µM.
Regarding `O=C(COC(=O)CCNS(=O)(=O)c1ccc(Cl)cc1)NC(=O)NCc1ccco1` [Compound C18], the half-inhibitory concentration (IC50) was greater than 10 µM. In addition, under setting [3], the Inhibition percentage was −6.593% and −12.6979% and −7.936%.
For `CCC(=O)NC(=S)Nc1ccc(NC(=S)NC(=O)c2cccc(OC)c2)cc1` [Compound C9], the IC50 is greater than 10 µM. Moreover, the Inhibition percentage (concentration gradient LogM −7.385606, HEK293 cells, glucagon peptide segment, HTRF cAMP, triplicate columns) was 3.734% and −2.05% and −2.9843%. Besides, the Inhibition percentage (concentration gradient LogM −8.81697, HEK293 cells, glucagon peptide segment, HTRF cAMP, triplicate columns) is 8.521% and 5.537% and 14.34%.
`O=S(=O)(Nc1ccc(Cl)cc1)c1ccc(NC(=S)Nc2ccccc2)cc1` [Compound C4] displayed an IC50 greater than 10 µM.
In the case of `CN1C(=O)Cc2cc(S(=O)(=O)CCC(=O)NCCc3ccccc3)ccc21` [Compound C10], the IC50 is greater than 10 µM. For the same compound, the Inhibition percentage under setting [3] was 1.692% and 1.059% and 6.715%. The Inhibition percentage under setting [1] is −33.073% and −31.3707% and −29.8413%.
With `CSc1cccc(NC(=O)c2c(O)c3sccc3[nH]c2=O)c1` [Compound C14], the 50% inhibitory concentration (IC50) is 0.422 µM and the “inhibitory activity of glucagon receptor (in words, from cAMP response curves)” value was “have the activity”. The “inhibitory activity of glucagon receptor (in words, from cAMP response curves)” value (listed as A2) is “good inhibitory activity of glucagon receptor”. The Inhibition percentage under setting [2] is 103.2945% and 102.1097% and 103.2736%. For the same compound, where the note is “concentration gradient LogM −5, triplicate, HEK293, cAMP HTRF, listed as A2”, the Inhibition percentage is 103.2945 percentage and 102.1097 percentage and 103.2736 percentage. Under “concentration gradient LogM −5.477121, HEK293 cells, glucagon peptide segment, HTRF cAMP, triplicate columns”, the Inhibition percentage is 106.1285% and 105.9119% and 107.3553%. Besides, under “concentration gradient LogM −5.477121, triplicate, HEK293, cAMP HTRF, listed as A2”, the Inhibition percentage was 106.1285 percentage and 105.9119 percentage and 107.3553 percentage. For the same compound, under setting [3], the Inhibition percentage is 84.32% and 92.48% and 91.05%. Moreover, the Inhibition percentage (concentration gradient LogM −5.954243, triplicate, HEK293, cAMP HTRF, listed as A2) was 84.32 percentage and 92.48 percentage and 91.05 percentage. For the same compound, the Inhibition percentage (concentration gradient LogM −6.431364, HEK293 cells, glucagon peptide segment, HTRF cAMP, triplicate columns) is 40.16% and 62.74% and 47.65%. The Inhibition percentage (concentration gradient LogM −6.431364, triplicate, HEK293, cAMP HTRF, listed as A2) was 40.16 percentage and 62.74 percentage and 47.65 percentage.
